# Test results from patent EP0565593B1, “REDUCING PESTICIDAL INTERACTIONS IN CROPS” (priority 1990, dated 1992).
# Like-named read-outs stand apart in the source and are kept apart here.
# Experiments:
# [1] = tested on: Shattercane (SHCA); type: in vivo
# [2] = tested on: Velvetleaf (VELE); assay: Multi-crop greenhouse test, soil-applied (Examples 65, 66; Tables 64, 65); type: in vivo, Abutilon theophrasti
# Protocol: Tests according to this invention in various crops indicate widespread application of the invention. In Examples 62-66 below are described tests with a variety of herbicides contacted with COUNTER® 15G in the presence and absence of MON-7400 (Antidote No. 12); MON-13900 (No. 1); MON-4660 (No. 16) and flurazole (No. 16). Those tests were conducted according to Procedures IV or V described above and illustrated further in other foregoing examples. Plants used in all tests were, for crops (as abbreviated in parentheses); cotton (COTT); soybean (SOBE); CORN, grain sorghum (GRSO); wheat (WHEA) and RICE, and the weeds giant foxtail (GIFT) and velvetleaf (VELE). The data in the tables below represent averages of two replications.
# In this test the crops and weeds were planted 1.3 cm deep in 13.7 cm X 27.7 cm pans containing Dupo silt loam soil. The test safeners were applied in acetone solution and COUNTER 15G as dry granules to soil cover layers and incorporated by shaking in a bag. Treated cover layers were placed on seeded pans which were transferred to greenhouse benches and subirrigated. Herbicide was applied POE six (6) days after PPI initiation and observations of plant injury made ten (10) days later; results are shown in Table 61. The herbicide used in this example was BEACON (No. 8).
# In another test in the several crops and weeds used in this test series, the herbicidal component was MON-12000 (No. 1); the other components were the same. the procedure used in this test was the same as that described in Example 62, modified to use a light overhead irrigation (about 0.32 cm/day) during days 4-7 of the test. Table 64 […]
# [3] = tested on: Corn; assay: Greenhouse test Procedure VI: biocide and antidote in furrow, herbicide PPI in cover layer (Examples 43-47, 59-61; Tables 42-46, 58-60); type: in vivo
# Procedure, shortened: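 Corn seed furrows given granular biocide (COUNTER 15G, 1.1 mg a.i./cm row) and antidote (0.37 mg a.i./cm row); herbicide in acetone or acetone/water incorporated into cover-layer soil (PPI). Duplicate pots in greenhouse, subirrigated plus overhead watering; corn injury observed, in some series thirteen days after PPI, against untreated, herbicide and herbicide+biocide controls.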
smiles,measurement,setting,value
COC(=O)COC(c1ccccc1)c1ccccc1 [compound 12],% Inhibition 5 DAP SHCA,"[1]; Antidote 4.48 + Biocide No. 1 8.96 Kg/Ha PPI, Herb. No. 8 0.07, 5 DAP, before herbicide application",0%
same,% Inhibition 13 DAP SHCA,"[1]; Antidote 4.48 + Biocide No. 1 8.96 Kg/Ha PPI, Herb. No. 8 0.07 POE, 13 DAP",80%
same,% Inhibition SHCA,"[1]; Antidote 4.48 + Biocide No. 1 8.96 Kg/Ha PPI, Herbicide No. 7 0.28 POE, 13 days after planting",75%
same,% Inhibition 13 DAP SHCA,"[1]; Herb. […], 13 DAP, after herbicide application",85%
same,% Inhibition SHCA,"[1]; Table 14: Herbicide No. 7 (ACCENT) 0.84 Kg/Ha POE + Biocide No. 2 8.96 Kg/Ha PPI + antidote 4.48 Kg/Ha PPI, 13 days after planting, 8 days after herbicide",75%
same,% Inhibition SHCA,"[1]; […], 13 days after planting, 8 days after herbicide",90%
same,% Inhibition SHCA,"[1]; […], observed 8 days later (Table 32)",80%
same,% Inhibition SHCA,"[1]; […], observed 8 days later (Table 33)",40%
same,% Inhibition SHCA,"[1]; […], observed 10 days after herbicide application",60%
same,% Inhibition 5 DAP SHCA,[1]; in vivo,15%
same,% Inhibition 13 DAP SHCA,[1]; in vivo,75%
same,% Inhibition VELE,"[2]; Table 64, Herb. No. 1 0.018 Kg/Ha + Biocide No. 1 8.96 Kg/Ha + Antidote 4.48 Kg/Ha",50%
same,% Inhibition VELE,"[2]; Table 64, Herb. No. 1 0.07 Kg/Ha + Biocide No. 1 8.96 Kg/Ha + Antidote 4.48 Kg/Ha",85%
same,% Inhibition VELE,"[2]; Table 64, Herb. No. 1 0.28 Kg/Ha + Biocide No. 1 8.96 Kg/Ha + Antidote 4.48 Kg/Ha",95%
same,% Inhibition VELE,"[2]; Table 65, Herb. No. 1 0.018 Kg/Ha + Biocide No. 1 8.96 Kg/Ha + Antidote 4.48 Kg/Ha",0%
same,% Inhibition VELE,"[2]; Table 65, Herb. No. 1 0.07 Kg/Ha + Biocide No. 1 8.96 Kg/Ha + Antidote 4.48 Kg/Ha",75%
same,% Inhibition VELE,"[2]; Table 65, Herb. No. 1 0.28 Kg/Ha + Biocide No. 1 8.96 Kg/Ha + Antidote 4.48 Kg/Ha",85%
same,% Inhibition Corn,"[3]; Antidote + Biocide No. 1 in furrow, Herbicide No. 6 0.14 Kg/Ha PPI",10%
same,% Inhibition Corn,"[3]; Antidote + Biocide No. 1 in furrow, Herbicide No. 11 0.0044 Kg/Ha PPI",10%
same,% Inhibition Corn,"[3]; Antidote + Biocide No. 1 in furrow, Herbicide No. 12 0.0044 Kg/Ha PPI",10%
same,% Inhibition Corn,"[3]; Antidote + Biocide No. 1 in furrow, Herbicide No. 13 0.0011 Kg/Ha PPI",35%
same,% Inhibition Corn,"[3]; Antidote + Biocide No. 1 in furrow, Herbicide No. 13 0.0022 Kg/Ha PPI",55%
same,% Inhibition Corn,"[3]; Antidote + Biocide No. 1 in furrow, Herbicide No. 14 0.07 Kg/Ha PPI",0%
same,% Inhibition Corn,"[3]; Antidote + Biocide No. 1 in furrow, Herbicide No. 16 0.07 Kg/Ha PPI, 13 days",40%
same,% Inhibition Corn,"[3]; Antidote + Biocide No. 1 in furrow, Herbicide No. 17 0.14 Kg/Ha PPI, 13 days",10%
same,% Inhibition Corn,"[3]; Antidote + Biocide No. 1 in furrow, Herbicide No. 18 0.04 Kg/Ha PPI, 13 days",5%
same,% Inhibition Corn,"[3]; Antidote + Biocide No. 1 in furrow, Herbicide No. 20 1.12 Kg/Ha PPI, 13 days",25%
same,% Inhibition Corn,"[3]; Antidote + Biocide No. 1 in furrow, Herbicide No. 22 0.28 Kg/Ha PPI, 13 days",0%
same,% Inhibition Corn,"[3]; Antidote + Biocide No. 1 in furrow, Herbicide No. 24 0.14 Kg/Ha PPI, 13 days",30%
same,% Inhibition Corn,"[3]; Antidote + Biocide No. 1 in furrow, Herbicide No. 25 0.14 Kg/Ha PPI, 13 days",0%
same,% Inhibition Corn,"[3]; Antidote + Biocide No. 1 in furrow, Herbicide No. 26 2.24 Kg/Ha PPI, 13 days",5%
same,% Inhibition Corn,"[3]; Antidote + Biocide No. 1 in furrow, Herbicide No. 28 0.04 Kg/Ha PPI, 13 days",10%
same,% Inhibition Corn,"[3]; Herbicide No. 12 0.0044 Kg/Ha PPI + Biocide No. 1 in furrow, no antidote",70%
same,% Inhibition Corn,"[3]; Herbicide No. 12 0.0044 Kg/Ha PPI alone, average of two reps",40%
